Measured values from US20240182470A1, “KRASG12C MUTANT PROTEIN INHIBITOR, PREARATION AND USE THEREOF” (YA THERAPEUTICS INC, priority 2021, published 2024).

The compounds below were run on H358 (KRAS G12C mutant) cells (assay: Tumor cell proliferation inhibition assay (Cell Titer-Glo, 72 h)). Settings: inhibition of tumor cell proliferation, 72 hours with compound, 10% fetal bovine serum; read-out: NCI-H538 IC50(nm).
Type: cell-based
Method: The H358 (KRAS G^12C mutant) cells were digested, centrifuged and resuspended, and the cell density was measured with a Scepter automatic cell counter. The cells were diluted to a solution containing 44,000 cells per milliliter, and the density-adjusted cell solution was 90 microliters per well. into a 96-well culture plate. The 96-well plate was placed in a 37° C., 5% CO2 incubator. After the cells were cultured for 24 hours, different concentrations of the compounds to be tested were added. The cells were incubated with the compounds for 72 hours in the presence of 10% fetal bovine serum. Glo Luminescent Cell Viability Assay Kit (see manufacturer's instructions for details) was used to measure ATP content to assess cell growth inhibition. Briefly, 30 μl of Cell Titer-Glo reagent was added to each well, and the plate was shaken for 10 minutes to induce cell lysis. Fluoroskan
Ascent FL (Thermo) assay was used to record the fluorescent signal, and the maximum signal value was obtained from cells treated with dimethyl sulfoxide for 72 hours. The minimum signal value was obtained from the medium alone (the number of cells was zero), and the % inhibition rate=(the maximum signal value compound signal value)/(the maximum signal value—the minimum signal value×100%, and the data were processed using Graphpadprism 5 software. By sigmoid Dose-response curve fitting to calculate the IC50 value. “A” means IC50≤50 nM; “B” means 50<IC50≤500 nM; “C” means 500<IC50≤2000 nM; “D” means 2000 nM<IC50
For `C=C(F)C(=O)N1CCN(c2nc(OC[C@@]34CCCN3C[C@H](F)C4)nc3nc(-c4cccc5cccc(F)c45)ccc23)C[C@@H]1CC#N` [Compound 92, 7-(8-Fluoronaphthyl)-4-(((S)-4-(2-fluoroacryloyl)-3-carbonitrileethylpiperazine)-1-yl)-2-(((2R,7aS)-2-fluorotetrahydro-1H-pyrincycl-7a(5H)-yl)methoxy)pyridine[2,3-d]lopyrimidine], the IC50 was ≤ 50 nM.
“7-(8-fluoronaphthyl)-8-fluoro-4-(((S)-4-(2-fluoroacryloyl)-3-carbonitrileethylpiperazine)-1-yl)-2-(((2R,7aS)-2-fluorotetrahydro-1H-pyrinyl-7a(5H)-yl)methoxy)quinazoline [Compound 51]” was tested, and the IC50 was ≤ 50 nM.
For “7-(8-Fluoronaphthyl)-8-fluoro-4-(((R)-4-acryloyl-2-methylpiperazine)-1-yl)-2-(((2R,7aS)-2-fluorotetrahydro-1H-pyrincyclo-7a(5H)-yl)methoxy)quinazoline [Compound 69]”, the IC50 was ≤ 50 nM.
For “7-(8-Fluoronaphthyl)-6-fluoro-4-(8-(2-fluoroacryloyl)-3,8-diazabicyclo[3.2.1]octan-3-yl)-2-(((2R,7aS)-2-fluorotetrahydro-1H-pyrinyl-7a(5H)-yl)methoxy)pyridine[2,3-d]lopyrimidine [Compound 31]”, the IC50 was ≤ 50 nM.
For “7-(8-Methylnaphthalene)-4-(((R)-4-Acryloyl-3-carbonitrileethylpiperazine)-1-yl)-24(1-(N,N-Dimethyl)amino)methylcyclopropan-1-yl)methoxy)pyridine[2,3-d]lopyrimidine [Compound 19]”, the IC50 was ≤ 50 nM.
In the case of `C=CC(=O)N1CCN(c2nc(OC[C@@]34CCCN3C[C@H](F)C4)nc3c(F)c(-c4cc(O)cc5cccc(F)c45)c(Cl)cc23)[C@H](C)C1` [Compound 46, 6-Chloro-7-(3-hydroxy-8-fluoronaphthyl)-8-fluoro-4-(((R)-4-acryloyl-2-methylpiperazine)-1-yl)-2-(((2R,7aS)-2-fluorotetrahydro-1H-pyrinyl-7a(5H)-yl)methoxy)quinazoline], the IC50 is reported as ≤ 50 nM.
For `C=C(F)C(=O)N1CCN(c2nc(OC[C@@]34CCCN3C[C@H](F)C4)nc3nc(-c4cc(O)cc5cccc(F)c45)c(F)cc23)[C@H](C)C1` [Compound 34, 7-(3-Hydroxy-8-fluoronaphthyl)-6-fluoro-4-(((R)-4-(2-fluoroacryloyl)-2-methylpiperazine)-1-yl)-2-(((2R,7aS)-2-fluorotetrahydro-1H-pyrincyclin-7a(5H)-yl)methoxy)pyridine[2,3-d]lopyrimidine], the IC50 was ≤ 50 nM.
For “7-(8-Chloronaphthalene)-4-(((R)-4-Acryloyl-2-methylpiperazine)-1-yl)-2-(((1-(pyrrolidin-1-yl)methancycloprop an-1-yl)methoxy)pyridine[2,3-d]lopyrimidine [Compound 14]”, the IC50 was ≤ 50 nM.
In the case of `C=CC(=O)N1CCN(c2nc(OC[C@@]34CCCN3C[C@H](F)C4)nc3c(F)c(-c4cc(O)cc5cccc(F)c45)ccc23)[C@H](C)C1` [Compound 48, 7-(3-Hydroxy-8-fluoronaphthyl)-8-fluoro-4-(((R)-4-acryloyl-2-methylpiperazine)-1-yl)-2-(((2R, 7aS)-2-fluorotetrahydro-1H-pyrincycline-7a(5H)-yl)methoxy)quinazoline], the IC50 is reported as ≤ 50 nM.
With “6-Chloro-74(3-hydroxy-8-fluoronaphthyl)-8-fluoro-4-(((S)-4-(2-fluoroacryloyl)-3-carbonitrileethylpiperazine)-1-yl)-2-(((2R,7aS)-2-fluorotetrahydro-1H-pyrincycline-7a(5H)-yl)methoxy)quinazoline [Compound 43]” the IC50 was ≤ 50 nM.
`C=CC(=O)N1CCN(c2nc(OC[C@@]34CCCN3CC(F)(F)C4)nc3c(F)c(-c4cc(O)cc5cccc(F)c45)ccc23)[C@H](C)C1` [Compound 60, 7-(3-Hydroxy-8-fluoronaphthyl)-8-fluoro-4-(((R)-4-acryloyl-2-methylpiperazine)-1-yl)-2-(((S)-2,2-difluorotetrahydro-1H-pyrinyl-7a(5H)-yl)methoxy)quinazoline] was tested, and the IC50 was ≤ 50 nM.
With “7-(3-Hydroxy-8-fluoronaphthyl)-8-fluoro-4-(((S)-4-acryloyl-3-carbonitrileethylpiperazine)-2-(((S)-2,2-difluorotetrahydro-1H-pyrincyclo-7a(5H)-yl)methoxy)quinazoline [Compound 64]” the IC50 was ≤ 50 nM.
`C=C(F)C(=O)N1CCN(c2cc(OC[C@@H]3CCCN3C)nc3nc(-c4cccc5cccc(F)c45)c(F)cc23)C[C@@H]1CC#N` [Compound 6] was tested, and the IC50 was ≤ 50 nM.
With `C=CC(=O)N1CCN(c2nc(OC[C@@]34CCCN3CC(F)(F)C4)nc3nc(-c4cccc5cccc(F)c45)ccc23)[C@H](C)C1` [Compound 86, 7-(8-Fluoronaphthyl)-4-(((R)-4-Acryloyl-2-methylpiperazine)-1-yl)-2-(((S)-2,2-difluorotetrakisHydro-1H-pyrincycl-7a(5H)-yl)methoxy)pyridine[2,3-d]lopyrimidine] the IC50 was ≤ 50 nM.
In the case of `C=C(F)C(=O)N1CCN(c2nc(OC[C@@]34CCCN3CC(F)(F)C4)nc3nc(-c4cc(O)cc5cccc(F)c45)ccc23)C[C@@H]1CC#N` [Compound 91, 7-(3-Hydroxy-8-fluoronaphthyl)-4-(((S)-4-(2-fluoroacryloyl)-3-carbonitrileethylpiperazine)-1-yl)-2-(((S)-2,2-difluorotetrahydro-1H-pyrincycl-7a(5H)-yl)methoxy)pyridine[2,3-d]lopyrimidine], the IC50 is reported as ≤ 50 nM.
For “6-Chloro-7-(8-methylnaphthyl)-8-fluoro-4-(((R)-4-acryloyl-2-methylpiperazine)-1-yl)-2-(((2R,7aS)-2-fluorotetrahydro-1H-pyrinyl-7a(5H)-yl)methoxy)quinazoline [Compound 73]”, the IC50 was ≤ 50 nM.
`C=C(F)C(=O)N1CCN(c2nc(OC[C@@]34CCCN3C[C@H](F)C4)nc3c(F)c(-c4cc(O)cc5cccc(F)c45)ccc23)C[C@@H]1CC#N` [Compound 52] was tested, and the IC50 was ≤ 50 nM.
In the case of “6-Chloro-7-(8-methylnaphthyl)-8-fluoro-4-(((R)-4-acryloyl-2-methylpiperazine)-1-yl)-2-((((S))-2,2-Difluorotetrahydro-1H-pyrincycline-7a(5H)-yl)methoxy)quinazoline [Compound 74]”, the IC50 is reported as ≤ 50 nM.
With `C=CC(=O)N1CCN(c2nc(OC[C@@]34CCCN3C[C@H](F)C4)nc3nc(-c4cccc5cccc(F)c45)c(F)cc23)C[C@H]1CC#N` [Compound 25, 7-(8-Fluoronaphthyl)-6-fluoro-4-(((R)-4-acryloyl-3-carbonitrileethylpiperazine)-1-yl)-2-(((2R,7aS)-2-fluorotetrahydro-1H-pyrincycl-7a(5H)-yl)methoxy)pyridine[2,3-d]lopyrimidine] the IC50 was ≤ 50 nM.
“7-(8-Fluoronaphthalene)-4-(((R)-4-Acryloyl-2-methylpiperazine)-1-yl)-24(1-(N,N-dimethylamino)) methylcyclopropan-1-yl)methoxy)pyridine[2,3-d]lopyrimidine [Compound 24]” was tested, and the IC50 was ≤ 50 nM.
For `C=CC(=O)N1CCN(c2nc(OC[C@@]34CCCN3C[C@H](F)C4)nc3c(F)c(-c4cccc5cccc(F)c45)c(Cl)cc23)C[C@@H]1CC#N` [Compound 40, 6-Chloro-7-(8-fluoronaphthyl)-8-fluoro-4-(((S)-4-acryloyl-3-carbonitrileethylpiperazine)-1-yl)-2-(((2R,7aS)-2-fluorotetrahydro-1H-pyrinyl-7a(5H)-yl)methoxy)quinazoline], the IC50 was ≤ 50 nM.
With “7-(8-fluoronaphthyl)-8-fluoro-4-(((R)-4-acryloyl-2-methylpiperazine)-1-yl)-2-(((S)-2,2-difluorotetrahydro-1H-pyrincyclo-7a(5H)-yl)methoxy)quinazoline [Compound 59]” the IC50 was ≤ 50 nM.
In the case of `C=C(F)C(=O)N1CCN(c2nc(OC[C@@]34CCCN3C[C@H](F)C4)nc3c(F)c(-c4cccc5cccc(F)c45)c(Cl)cc23)C[C@@H]1CC#N` [Compound 41, 6-Chloro-7-(8-fluoronaphthyl)-8-fluoro-4-(((S)-4-(2-fluoroacryloyl)-3-carbonitrileethylpiperazine)-1-yl)-2-(((2R,7aS)-2-fluorotetrahydro-1H-pyrincycline-7a(5H)-yl)methoxy)quinazoline], the IC50 is reported as ≤ 50 nM.
“7-(8-Fluoronaphthalene)-4-(((R)-4-Acryloyl-2-methylpiperazine)-1-yl)-2-(((1-(pyrrolidin-1-yl)methyl cyclopropan-1-yl)methoxy)pyridine[2,3-d]lopyrimidine [Compound 13]” was tested, and the IC50 was ≤ 50 nM.
For “7-(8-Fluoronaphthyl)-8-fluoro-(((S)-4-(2-fluoroacryloyl)-3-carbonitrileethylpiperazine)-1-yl)-2-((((S)-2,2-difluorotetrahydro-1H-pyrincycline-7a(5H)-yl)methoxy)quinazoline [Compound 66]”, the IC50 was ≤ 50 nM.
For `C=C(F)C(=O)N1CCN(c2nc(OC[C@@]34CCCN3C[C@H](F)C4)nc3nc(-c4cccc5cccc(C)c45)ccc23)C[C@@H]1CC#N` [Compound 93], the IC50 was ≤ 50 nM.
In the case of `C=CC(=O)N1CCN(c2nc(OC[C@@H]3CCCN3C)nc3nc(-c4cccc5cccc(F)c45)c(F)cc23)[C@@H](C)C1` [Compound 10], the IC50 is reported as ≤ 50 nM.
